Patent US20260272964A1, “PENTAGALLOYL GLUCOSE DERIVED FROM SCHINUS PLANTS AND METHODS OF USE” (Emory University, priority 2020, published 2026)
Where “and” joins values, the source holds several entries; their conditions need not be identical. Equal entries are not always repeated. Where two headings read alike, the source gives them in different places.

Legend:
[1] = tested on: Enterococcus faecium; test: Growth inhibition of ESKAPE pathogens; assay type: cell-based
Protocol: (§1) PGG was also tested against a panel of other ESKAPE pathogens: Enterococcus faecium, Staphylococcus aureus, Klebsiella pneumoniae, Pseudomonas aeruginosa, and Enterobacter cloacae.

[2] = tested on: Klebsiella pneumoniae; test: Growth inhibition of ESKAPE pathogens; assay type: cell-based
Protocol: as §1

[3] = tested on: Candida parapsilosis; test: Growth inhibition of Candida species; assay type: cell-based; settings: Lodderomyces parapsilosis
Protocol: (§2) The activity of PGG was tested for growth inhibition against two susceptible strains and 6 drug resistant strains from three Candida species (Table 2). […] The activity of PGG followed a dose-response curve against tested strains. Typically the strains tested had MICs less than 2 μg/mL. Candida glabrata (AR Bank #0335) yielded the highest MIC at 8 μg/mL.

[4] = tested on: Candida glabrata; test: Growth inhibition of Candida species; assay type: cell-based
Protocol: as §2

[5] = tested on: Candida albicans; test: Growth inhibition of Candida species; assay type: cell-based
Protocol: as §2

[6] = tested on: Candida tropicalis; test: Growth inhibition of Candida species; assay type: cell-based; settings: Table 2, strain AR Bank #0345
Protocol: as §2

[7] = tested on: Candida auris; test: Growth inhibition of Candida species; assay type: cell-based; settings: Candidozyma auris
Protocol: as §2

[8] = tested on: A. baumannii; test: Time-kill assays with and without supplements; assay type: cell-based, Acinetobacter baumannii
Protocol: PGG antibacterial activity may be attributed to its chelation of iron. One can use a colorimetric assay to quantify binding of free iron by PGG. One can perform bioassays with iron supplementation and 2,2′-dipyridyl, a known iron chelator, as a control. To elucidate potential mechanisms of action of PGG, A. baumannii growth inhibition and time-kill assays were carried out with various supplements in combination with PGG: 0.02% oleic acid, 0.02% polysorbate 80, 1 mM iron (II) sulfate, and 1 mM iron (III) sulfate. […] Furthermore, PGG combined with oleic acid, polysorbate 80, and iron (II) sulfate treatments had roughly tenfold, 100-fold, and 1,000-fold higher CFU/mL measurements, respectively, than PGG alone at the 24 h timepoint.

[9] = tested on: Acinetobacter baumannii; test: Growth inhibition of Acinetobacter baumannii (CRAB and susceptible strains); assay type: cell-based; settings: for IC50 / MIC: Acinetobacter baumannii
Protocol: A natural products library was screened for growth inhibition of CRAB. Lead extracts were then tested in serial dilution and nine extracts from seven species were chosen for further study based on activity. Extract 429, made from the leaves of Schinus terebinthifolia, underwent bioassay-guided fractionation for growth inhibition (FIG. 1).
A library of botanical extracts generated from plants was screened for growth inhibition of CRAB. […] Bioassay-guided fractionation lead to the isolation of pentagalloyl glucose (PGG), a bioactive gallotannin. […] Topical applications of PGG, such as wound rinses and dressings, are contemplated. […]

[10] = in vivo; cited from earlier work
[11] = tested on: A. baumannii AB5075; test: Restoration assay (iron addition to PGG-treated wells); assay type: cell-based, Acinetobacter baumannii; settings: AB5075, 1 mM iron (II) or iron (III) sulfate on PGG-treated wells, 24-48 h
Protocol: To test for the restoration of bacterial growth after iron addition, iron (II) and iron (III) sulfate were spread at concentrations of 1 mM on PGG-treated A. baumannii AB5075 wells that had no visible colonies after 24 h of incubation. Immediately after addition of iron to the agar, all wells containing PGG obtained a purple color, increasing in darkness with increasing PGG concentration.

O=C(OC[C@H]1O[C@@H](OC(=O)c2cc(O)c(O)c(O)c2)[C@H](OC(=O)c2cc(O)c(O)c(O)c2)[C@@H](OC(=O)c2cc(O)c(O)c(O)c2)[C@@H]1OC(=O)c1cc(O)c(O)c(O)c1)c1cc(O)c(O)c(O)c1 [PGG, [(2R,3R,4S,5R,6S)-3,4,5,6-tetrakis[(3,4,5-trihydroxybenzoyl)oxy]oxan-2-yl]methyl 3,4,5-trihydroxybenzoate]
1 µg/mL: MIC ([3]; Table 2, strain AR Bank #0337) | IC50 ([3]; Table 3, strain AR Bank #0337) | MIC ([3]; Table 3, strain AR Bank #0337) | MIC ([3]; Table 3, strain AR Bank #0338) | IC50 ([3]; Table 3, strain AR Bank #0339) | MIC ([4]; Nakaseomyces glabratus, Table 2, strain AR Bank #0325, read-out: MIC) | MIC ([4]; Nakaseomyces glabratus, Table 3, strain AR Bank #0325, read-out: MIC) | MIC ([5]; Candida albicans, Table 2, strain ARMH12 (Flc^R), read-out: MIC) | IC50 ([5]; Candida albicans, Table 3, strain ATCC90028) | MIC [6]
>256 µg/mL: PGG MIC ([9]; strain ATCC17978)
low oral bioavailability: oral bioavailability [10]
identical growth inhibition: growth inhibition compared to PGG isolated from S. terebinthifolia ([9]; A. baumannii)
~1,000 fold: CFU/mL relative to PGG alone ([8]; PGG combined with iron (II) sulfate, 24 h timepoint)
roughly tenfold: CFU/mL relative to PGG alone ([8]; PGG combined with oleic acid, 24 h timepoint)
2 µg/mL: MIC ([3]; Table 3, strain AR Bank #0339) | IC50 ([4]; Nakaseomyces glabratus, Table 3, strain AR Bank #0335) | MIC ([5]; Candida albicans, Table 3, strain ATCC90028, read-out: MIC)
128 µg/mL: IC50 ([1]; strain NR-31915, read-out: PGG IC50) | MIC ([9]; strain AR Bank #0045, read-out: PGG MIC) | MIC ([9]; strain AR Bank #0273, read-out: PGG MIC) | MIC ([9]; strain AR Bank #0281, read-out: PGG MIC) | MIC ([9]; strain AR Bank #0299, read-out: PGG MIC) | MIC ([9]; strain OIFC143, read-out: PGG MIC)
~100 fold: CFU/mL relative to PGG alone ([8]; PGG combined with polysorbate 80, 24 h timepoint)
0.5 µg/mL: IC50 ([3]; Table 2, strain AR Bank #0337) | IC50 ([3]; Table 3, strain AR Bank #0338) | IC50 ([4]; Nakaseomyces glabratus, Table 2, strain AR Bank #0325) | IC50 ([4]; Nakaseomyces glabratus, Table 3, strain AR Bank #0325) | MIC ([4]; Nakaseomyces glabratus, Table 3, strain AR Bank #0326, read-out: MIC) | IC50 ([5]; Candida albicans, Table 2, strain ARMH12 (Flc^R)) | MIC ([5]; Candida albicans, Table 2, strain ATCC10231, read-out: MIC) | MIC ([7]; Table 2, strain AR Bank #0381)
bacteriostatic rather than bactericidal: kind of activity in time-kill (CFU/mL curve) ([8]; PGG alone, 256 μg/mL)
0.25 µg/mL: IC50 ([4]; Nakaseomyces glabratus, Table 3, strain AR Bank #0326) | IC50 ([5]; Candida albicans, Table 2, strain ATCC10231) | IC50 [6] | MIC ([7]; Table 2, strain AR Bank #0390) | IC50 ([7]; Table 2, strain AR Bank #0381)
256 µg/mL: MIC ([2]; read-out: PGG MIC) | MIC ([9]; strain AB5075, read-out: PGG MIC) | MIC ([9]; strain AR Bank #0035, read-out: PGG MIC) | MIC ([9]; strain AR Bank #0300, read-out: PGG MIC) | MIC ([9]; strain NR-9667, read-out: PGG MIC)
8 µg/mL to 64 µg/mL and 8.5 µM to 68 µM: IC50 ([9]; read-out: IC50s, range over strains, one susceptible and 23 drug resistant strains (19 CRAB))
16 µg/mL: IC50 ([9]; strain AB5075, read-out: PGG IC50) | IC50 ([9]; strain AR Bank #0036, read-out: PGG IC50) | IC50 ([9]; strain AR Bank #0070, read-out: PGG IC50) | IC50 ([9]; strain AR Bank #0282, read-out: PGG IC50) | IC50 ([9]; strain NR-9667, read-out: PGG IC50) | IC50 ([9]; strain Naval-81, read-out: PGG IC50)
64 µg/mL: MIC ([9]; A. baumannii, strain not given, read-out: MIC) | IC50 ([9]; strain AR Bank #0274, read-out: PGG IC50) | MIC ([9]; strain AR Bank #0284, read-out: PGG MIC)
can be attenuated by addition of iron: restoration of bacterial growth after iron addition [11]
1.0 µg/mL: MIC ([5]; Table 3, strain MH12)
most active constituent: activity in bioassay-guided fractionation for growth inhibition ([9]; CRAB, fractions of extract 429)
8 µg/mL: IC50 ([2]; strain NR-15410, read-out: PGG IC50) | MIC ([4]; Nakaseomyces glabratus, Table 3, strain AR Bank #0335, read-out: MIC) | IC50 ([9]; A. baumannii strains tested in this study, read-out: median IC50 for growth inhibition) | IC50 ([9]; ATCC17978, strain ATCC17978, read-out: PGG IC50) | IC50 ([9]; strain AR Bank #0033, read-out: PGG IC50) | IC50 ([9]; strain AR Bank #0035, read-out: PGG IC50) | IC50 ([9]; strain AR Bank #0037, read-out: PGG IC50) | IC50 ([9]; strain AR Bank #0045, read-out: PGG IC50) | IC50 ([9]; strain AR Bank #0102, read-out: PGG IC50) | IC50 ([9]; strain AR Bank #0273, read-out: PGG IC50) | IC50 ([9]; strain AR Bank #0275, read-out: PGG IC50) | IC50 ([9]; strain AR Bank #0277, read-out: PGG IC50) | IC50 ([9]; strain AR Bank #0278, read-out: PGG IC50) | IC50 ([9]; strain AR Bank #0281, read-out: PGG IC50) | IC50 ([9]; strain AR Bank #0283, read-out: PGG IC50) | IC50 ([9]; strain AR Bank #0284, read-out: PGG IC50) | IC50 ([9]; strain AR Bank #0295, read-out: PGG IC50) | IC50 ([9]; strain AR Bank #0299, read-out: PGG IC50) | IC50 ([9]; strain AR Bank #0300, read-out: PGG IC50) | IC50 ([9]; strain OIFC143, read-out: PGG IC50)
> 256 µg/mL: MIC ([1]; strain NR-31915, read-out: PGG MIC) | MIC ([9]; ATCC17978, strain ATCC17978, read-out: PGG MIC) | MIC ([9]; fourteen strains, read-out: MICs of fourteen of the A. baumannii strains tested) | MIC ([9]; strain AR Bank #0033, read-out: PGG MIC) | MIC ([9]; strain AR Bank #0036, read-out: PGG MIC) | MIC ([9]; strain AR Bank #0037, read-out: PGG MIC) | MIC ([9]; strain AR Bank #0070, read-out: PGG MIC) | MIC ([9]; strain AR Bank #0102, read-out: PGG MIC) | MIC ([9]; strain AR Bank #0274, read-out: PGG MIC) | MIC ([9]; strain AR Bank #0275, read-out: PGG MIC) | MIC ([9]; strain AR Bank #0277, read-out: PGG MIC) | MIC ([9]; strain AR Bank #0278, read-out: PGG MIC) | MIC ([9]; strain AR Bank #0282, read-out: PGG MIC) | MIC ([9]; strain AR Bank #0283, read-out: PGG MIC) | MIC ([9]; strain AR Bank #0295, read-out: PGG MIC) | MIC ([9]; strain Naval-81, read-out: PGG MIC)
85-95%: inhibition at which dose-response curves level off ([9]; A. baumannii, high concentrations)
8.0 µg/mL: MIC ([4]; Table 3, strain AR Bank #0335)
